# Measured values published in patent EP0050799B1, “New processes for the production of di-alkyl esters and optically active mono-alkyl esters of 3-aminoglutaric acid” (ZAIDAN HOJIN BISEIBUTSU KAGAKU KENKYU KAI, priority 1980, dated 1982).
# Test system: Staphylococcus aureus
# Assay: antibacterial activity test (minimum concentration inhibitory to growth)
# Type: cell-based
# Settings: for MIC: Staphylococcus aureus; for antibacterial activity against Gram-positive bacteria, particularly against Staphylococcus aureus: general statement in words
Compound,MIC [µg/mL],"antibacterial activity against Gram-positive bacteria, particularly against Staphylococcus aureus"
"COC(=O)C[C@@H](N)CC(=O)O [Example 1 (b), β-(S)-aminoglutaric acid mono-methyl ester]",10 to 100,exhibit antibacterial activity
"CCOC(=O)C[C@@H](N)CC(=O)O [Example 2, β-(S)-Aminoglutaric acid mono-ethyl ester]",20 to 100,exhibit antibacterial activity
"COC(=O)C[C@H](N)CC(=O)O [Example 4, β-(R)-aminoglutaric acid mono- methyl ester]",20,exhibit an antibacterial activity
"CCOC(=O)C[C@H](N)CC(=O)O [Example 7, β-(R)-Aminoglutaric acid mono-ethyl ester]",30 to 100,
